We go through seven compounds from patent US20130116267A1 (priority 2010, published 2013).

One data set addresses PI3K p110 delta (Homo sapiens, UniProt O00329). As to conditions: cited from earlier work.
For the next data set, the system named is neutrophils. As to conditions: read-out: IC50 in fMLP-induced elastase exocytosis from neutrophils; cited from earlier work.
A further data set has as its system CD3-induced IL-2 release. The settings on record: Lewis rats; cited from earlier work.
For data set [1], the system named is influenza virus strain PR8. It counts as cell-based.
The subject of data set [2] is H7N7 A/Equine/London/1416/73 influenza virus strain. It counts as in vivo. The settings on record: wild type mice, 10×LD50 H7N7 London strain; vs vehicle only; FIG. 3B.
A further data set deals with HIV-1Ba-L. The experiment in a line: HIV-1 p24 levels in supernatants of infected PHA/IL-2-activated PBMC. It is filed as cell-based. The settings on record: n=4 donors, PBMC cultured with 1 μM, 10 μM or 50 μM, FIG. 4.
In data set [3] the test system is PHA-activated CD4+ T cells. The experiment in a line: CD25 expression on CD4+ T cells exposed to HIV-1 (flow cytometry). It counts as cell-based, human. The settings on record: PHA-activated CD4+ T cells exposed to HIV-1; different concentrations, n=3; FIG. 6. In general terms: A flow cytometer gives signals particle by particle.

“Also recorded” adds a separate entry of the source. Like-named read-outs stand apart in the source and are kept apart here.

PI3K p110 delta, sequence (O00329 whole entry): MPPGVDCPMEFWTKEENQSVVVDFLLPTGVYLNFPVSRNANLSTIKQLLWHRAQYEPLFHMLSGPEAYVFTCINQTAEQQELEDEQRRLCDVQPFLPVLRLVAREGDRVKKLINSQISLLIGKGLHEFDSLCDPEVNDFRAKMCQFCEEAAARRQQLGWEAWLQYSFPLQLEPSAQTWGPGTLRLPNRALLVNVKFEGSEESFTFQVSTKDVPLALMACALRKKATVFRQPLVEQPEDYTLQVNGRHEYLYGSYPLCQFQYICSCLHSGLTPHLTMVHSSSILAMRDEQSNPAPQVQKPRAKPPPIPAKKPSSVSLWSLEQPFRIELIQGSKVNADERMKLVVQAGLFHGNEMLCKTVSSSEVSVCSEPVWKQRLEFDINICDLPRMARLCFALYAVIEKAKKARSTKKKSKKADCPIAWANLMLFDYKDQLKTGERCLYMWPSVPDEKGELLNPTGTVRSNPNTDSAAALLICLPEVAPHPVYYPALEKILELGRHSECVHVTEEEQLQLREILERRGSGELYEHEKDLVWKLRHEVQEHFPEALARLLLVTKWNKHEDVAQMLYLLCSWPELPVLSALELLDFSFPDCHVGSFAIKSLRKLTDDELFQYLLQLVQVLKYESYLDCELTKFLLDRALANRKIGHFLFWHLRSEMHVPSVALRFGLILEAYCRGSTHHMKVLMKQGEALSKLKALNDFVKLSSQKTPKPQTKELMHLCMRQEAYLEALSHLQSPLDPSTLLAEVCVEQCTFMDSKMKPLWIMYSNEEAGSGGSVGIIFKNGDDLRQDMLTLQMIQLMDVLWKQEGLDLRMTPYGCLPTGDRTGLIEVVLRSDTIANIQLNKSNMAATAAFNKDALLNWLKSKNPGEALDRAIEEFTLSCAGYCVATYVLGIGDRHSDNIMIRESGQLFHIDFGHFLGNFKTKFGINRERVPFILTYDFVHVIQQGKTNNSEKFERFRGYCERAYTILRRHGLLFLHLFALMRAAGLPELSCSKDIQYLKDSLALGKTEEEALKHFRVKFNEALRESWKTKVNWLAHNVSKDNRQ
PI3K p110 delta, sequence (P27986 whole entry partner): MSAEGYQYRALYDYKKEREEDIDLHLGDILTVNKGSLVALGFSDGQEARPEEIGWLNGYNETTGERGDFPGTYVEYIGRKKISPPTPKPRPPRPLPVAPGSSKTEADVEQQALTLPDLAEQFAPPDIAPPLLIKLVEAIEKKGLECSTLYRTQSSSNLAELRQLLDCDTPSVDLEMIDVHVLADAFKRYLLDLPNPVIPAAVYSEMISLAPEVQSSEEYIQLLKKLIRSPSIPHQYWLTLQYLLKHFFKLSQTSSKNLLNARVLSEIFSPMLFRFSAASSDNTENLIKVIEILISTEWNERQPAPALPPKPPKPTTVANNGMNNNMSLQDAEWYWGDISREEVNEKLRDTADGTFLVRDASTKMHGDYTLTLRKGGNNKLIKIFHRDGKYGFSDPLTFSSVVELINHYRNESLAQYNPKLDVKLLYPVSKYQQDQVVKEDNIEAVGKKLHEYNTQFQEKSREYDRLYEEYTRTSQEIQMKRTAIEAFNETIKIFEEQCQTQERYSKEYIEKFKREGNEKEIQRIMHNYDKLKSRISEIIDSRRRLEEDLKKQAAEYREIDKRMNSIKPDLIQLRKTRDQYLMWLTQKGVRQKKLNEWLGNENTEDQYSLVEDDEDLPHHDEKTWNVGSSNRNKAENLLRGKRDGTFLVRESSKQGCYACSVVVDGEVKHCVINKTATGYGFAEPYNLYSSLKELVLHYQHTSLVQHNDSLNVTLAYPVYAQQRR

As to `CC(c1nc2ccsc2c(=O)n1-c1ccccc1)n1cnc2c(N)ncnc21` (stereo not drawn) [Compound (IV), 2-(1-(6-amino-9H-purin-9-yl)ethyl)-3-phenylthieno[3,2-d]pyrimidin-4(3H)-one], at PI3K p110 delta (read-out: PI3K p110 delta IC50), the IC50 was 40 nM.

With `Cc1noc2nc(C(C)Sc3ncnc4[nH]cnc34)n(-c3ccccc3)c(=O)c12` (stereo not drawn) [Compound (V), 6-(1-((9H-purin-6-yl)thio)ethyl)-3-methyl-5-phenylisoxazolo[5,4-d]pyrimidin-4(5H)-one], the IC50 in the data set on neutrophils was 1200 nM.

In the case of `Cc1oc2ncn(CC(C)C)c(=O)c2c1C(=O)NCc1cccnc1` [Compound (VI), 3-isobutyl-6-methyl-4-oxo-N-(pyridin-3-ylmethyl)-3,4-dihydrofuro[2,3-d]pyrimidine-5-carboxamide], the IC50 at PI3K p110 delta (read-out: PI3K p110 delta IC50) is 1200 nM.

`COCC(O)Cn1cc(-c2ccc3c(c2)N(c2nc4c(s2)C(=O)NC(C)(C)C4)CCO3)cn1` (stereo not drawn) [Compound (XXI), 2-(6-(1-(2-hydroxy-3-methoxypropyl)-1H-pyrazol-4-yl)-2H-benzo[b][1,4]oxazin-4(3H)-yl)-6,6-dimethyl-6,7-dihydrothiazolo[5,4-c]pyridin-4(5H)-one]: in the data set with CD3-induced IL-2 release, the “ED50 in a CD3-induced IL-2 release study” value was 5 mg/kg.

Consider `Nc1nc(N)c2nc(-c3cccc4[nH]ccc34)cnc2n1` [Compound (XXIX), 6-(1H-indol-4-yl)pteridine-2,4-diamine], for which, at PI3K p110 delta (read-out: PI3K p110 delta IC50), the IC50 was 64 nM.

Turning to `COc1ncc(-c2ccc3nccc(-c4ccncc4)c3c2)cc1NS(=O)(=O)c1ccc(F)cc1F` [Compound (XXXII), 2,4-difluoro-N-(2-methoxy-5-(4-(pyridin-4-yl)quinolin-6-yl)pyridin-3-yl)-benzenesulfonamide], the IC50 on PI3K p110 delta (read-out: apparent PI3K p110 delta IC50) was 0.024 nM.

`Cc1ccccc1-n1c(Cn2cnc3c(N)ncnc32)nc2cccc(C)c2c1=O` [IC87114, 2-[(6-amino-9H-purin-9-yl)methyl]-5-methyl-3-(o-tolyl)quinazolin-4(3H)-one]: in data set [1], the influenza virus replication result was “inhibits influenza virus replication”. In data set [1] (A549 epithelial cell line infected with influenza virus, FIG. 1B: 100 μM, PR8, MOI=0.01), the “viral mRNA production reduced compared to untreated cells” value is about 25 fold. In addition, the “survival after lethal challenge” value in data set [2] is given as “increased survival; also recorded: protects mice lethally challenged”. Moreover, the “reduction of 48 hour HIV-1 p24 levels” value with HIV-1Ba-L is given as “approximately 80%”. Besides, the CD25 expression result in data set [3] was “not affected”. For the same compound, the “survival of A549 cell” value in the data set with A549 cell is listed as “did not affect the survival”.
